In PubChem BioAssay AID602236 (The Scripps Research Institute Molecular Screening Center, 2012) one finds IC50 data, which are given here for 16 compounds.

Activity calls are given as the source filed them.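 How the source made its calls: active means IC50 of 10 µM or lower; inactive means IC50 above 10 µM.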

For this test, the system named is HEK-293 Gal4-VP16 UAS luciferase reporter, luminescence. Description: VP16 transactivation inhibitor potency, dose response, counter-screen for SRC1 inhibitor project, cell-based, luminescence, high throughput, SRC1 series (AID 602236).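 Further: inhibitor potency where hits lower luciferase light from Gal4-VP16 transactivation.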 Background: Counterscreens check selectivity or assay interference.

In general, IC50 refers to the midpoint of a concentration-inhibition curve.

As for `COc1ccccc1NS(=O)(=O)c1cccc(NC(=O)c2cncc(Br)c2)c1`, the IC50 is 12 µM (inactive).

For the compound `CCOc1ccc(/C=C2\SC(=S)N(CCCC(=O)NCCCN3CCOCC3)C2=O)cc1`, the IC50 is 21.9 µM (inactive).

Turning to `Cc1c(C(=O)N/N=C/C(C)C)[nH]c2ccc([N+](=O)[O-])cc12`, the IC50 is 21.3 µM (inactive).

Turning to `CCN(Cc1ccncc1)C(=O)CC1C(=O)NCCN1Cc1ccc(F)c(F)c1` (stereo unspecified), the IC50 was 15.8 µM (inactive).

`N#Cc1c(-c2ccccc2)c(C#N)c2nc3ccccc3n2c1N`: the IC50 was > 35.9 µM (inactive).

For the compound `O=C1NCCc2c1[nH]c1ccc([N+](=O)[O-])cc21`, the IC50 was 32 µM (inactive).

For the compound `CNc1cccnc1C=NNC(N)=S`, the IC50 is 18.4 µM (inactive).

With `CN1CCN(c2cccc3c2C(=O)c2ccccc2C3=O)CC1`, the IC50 is 23.8 µM (inactive).

Turning to `CC(NC(=O)COC(=O)c1cccs1)c1ccccc1` (stereo unspecified), the IC50 was > 35.9 µM (inactive).

Consider `CC(=O)/C(N=Nc1ccc2c(c1)OCCO2)=C(\C)O`, for which the IC50 is > 35.9 µM (inactive).

Consider `Cn1c(=O)c2[nH]c(COc3ccc(C(C)(C)C)cc3)nc2n(C)c1=O`, for which the IC50 is 8.31 µM.

With `O=C(Nc1cccc(C(F)(F)F)c1)Nc1nnc([C@@H]2C[C@H](O)[C@@H](CO)O2)s1`, the 50% inhibitory concentration (IC50) is 7.89 µM.

Regarding `Cc1c(/C(O)=C2/C(=O)C(=O)N(Cc3cccnc3)C2c2ccccn2)cnn1-c1ccccc1` (stereo unspecified), the IC50 was > 35.9 µM (inactive).

`Cc1ccc(/C=C2/SC(=S)N(CCCC(=O)Nc3ccc(O)cc3)C2=O)cc1`: the IC50 was > 12 µM (inactive).

Consider `COc1ccc2ncn(-c3ccccc3)c2c1`, for which the IC50 is 5.95 µM.

Regarding `O=C(CCCOc1ccc(Cl)cc1Cl)N/N=C/c1ccccc1O`, the IC50 was 4.77 µM.
